According to patent US4775673A, “Substituted acylpiperazinoquinazolines and pharmaceutical compositions containing same” (priority 1983, dated 1988):
Counter-ions that a name gives are not always drawn.

What was measured:
[1] = tested on: hypertension; conditions: prior art; cited from earlier work
[2] = tested on: post-synaptic alpha1 -adrenergic receptors; conditions: prior art; cited from earlier work
[3] = prior art; cited from earlier work
[4] = tested on: non-anesthesized rabbits; assay: blood pressure reduction in non-anesthetized rabbits; format: in vivo, rabbit
Protocol: (§1) Of particular interest in this respect are the compounds of formula I above. The hydrochlorides of these compounds afford up to more than 15% aqueous solutions. […] In addition, the compounds of formula I are extremely non-toxic.
(§2) A typical, highly advantageous compound of the invention is the corresponding 2-methyloxypropionyl derivative of formula I, in which n is 0 and both R and R1 are methyl groups. In nonanesthesized (conscious) DOCA-hypertensive rats, this compound in an oral dose of 1 mg/kg elicits a blood pressure reduction of 20%. A dramatic reduction in blood pressure, as much as 40-50%, is observed in the same animals at a dose of 10 mg/kg p.o. Similarly, in non-anesthesized normotensive monkeys (Macaca mulatta), a dose of 3 mg/kg p.o. reduces the blood pressure by 20%. A dose of 25 mg/kg p.o. reduces blood pressure by 35 to 50% for a period of 7 to 9 hours. An intravenous administration of 2.5 mg/kg as a bolus to monkeys reduces blood pressure by 30 to 50% for 1 hour. A similar administration of 10 mg/kg i.v. elicits a blood pressure reduction of 50 to 70% for more then 7 hours. In rabbits anesthesized by pentobarbital, a dose of 25 mg/kg p.o. reduces blood pressure by 20 to 40% for a period of 4 to 5 hours. In non-anesthesized rabbits, a dose as low as 0.1 mg/kg i.v. elicits a transient but significant blood pressure reduction of almost 20%, shortly after administration. […]

[5] = tested on: normotensive monkeys (Macaca mulatta); assay: blood pressure reduction in non-anesthetized normotensive monkeys; format: in vivo; conditions: for duration of blood pressure reduction: monkeys
Protocol: as §1
A typical, highly advantageous compound of the invention is the corresponding 2-methyloxypropionyl derivative of formula I, in which n is 0 and both R and R1 are methyl groups. In nonanesthesized (conscious) DOCA-hypertensive rats, this compound in an oral dose of 1 mg/kg elicits a blood pressure reduction of 20%. A dramatic reduction in blood pressure, as much as 40-50%, is observed in the same animals at a dose of 10 mg/kg p.o. Similarly, in non-anesthesized normotensive monkeys (Macaca mulatta), a dose of 3 mg/kg p.o. reduces the blood pressure by 20%. A dose of 25 mg/kg p.o. reduces blood pressure by 35 to 50% for a period of 7 to 9 hours. An intravenous administration of 2.5 mg/kg as a bolus to monkeys reduces blood pressure by 30 to 50% for 1 hour. A similar administration of 10 mg/kg i.v. elicits a blood pressure reduction of 50 to 70% for more then 7 hours. In rabbits anesthesized by pentobarbital, a dose of 25 mg/kg p.o. reduces blood pressure by 20 to 40% for a period of 4 to 5 hours. In non-anesthesized rabbits, a dose as low as 0.1 mg/kg i.v. elicits a transient but significant blood pressure reduction of almost 20%, shortly after administration. A dose of 1 mg/kg i.v. reduces the blood pressure by 20 to 30% for a period of more than 8 hours.

[6] = tested on: DOCA-hypertensive rats; assay: blood pressure reduction in nonanesthetized (conscious) DOCA-hypertensive rats; format: in vivo, rat
Protocol: as §1, §2

[7] = acute toxicity assay in rats; conditions: rat, in vivo, iv
[8] = tested on: mice; assay: acute toxicity assay in mice; format: in vivo, mouse; conditions: acute toxicity assays
Source text: as §1

[9] = acute toxicity assay in mice; format: in vivo, mouse; conditions: mouse, in vivo, iv, mice
Source text: as §1

Row | Structure (SMILES) | antihypertensive activity [1] | blocking of post-synaptic alpha1-adrenergic receptors [2] | solubility in water [3] | blood pressure reduction ([4]; 0.1 mg/kg i.v., transient, shortly after administration) [%] | duration of blood pressure reduction ([4]; 1 mg/kg i.v.) | duration of blood pressure reduction ([5]; 2.5 mg/kg i.v. bolus) [h] | blood pressure reduction ([5]; 3 mg/kg p.o., non-anesthetized monkeys) [%] | duration of blood pressure reduction ([5]; 10 mg/kg i.v.) [h] | blood pressure reduction ([6]; 1 mg/kg oral) [%] | reduction in blood pressure ([6]; 10 mg/kg p.o.) | LD50 [7] [mg/kg] | toxicity [8] | LD50 [9] [mg/kg]
1 | COc1cc2nc(N3CCN(C(=O)c4ccco4)CC3)nc(N)c2cc1OC [Prazosin, 1-(4-amino-6,7-dimethyoxy2-quinazolinyl)-4-(2-furoyl) piperazine hydrochloride] | highly efficient antihypertensive compound | blocking the post-synaptic alpha1 -adrenergic receptors | only slightly soluble in water |  |  |  |  |  |  |  |  |  | 
2 | COc1cc2nc(N3CCN(C(=O)C(C)OC)CC3)nc(N)c2cc1OC (stereo not shown) [2-methoxypropionyl derivative, 1-(4-amino-6,7-dimethoxy-2-quinazolinyl)-4-(2-methoxyproprionyl)piperazine] |  |  |  | ~20 | more than 8 hours | 1 | 20 | > 7 | 20 | 40-50% | 440 | extremely low in toxicity | 360
